In article PMC8161486 (ACS Central Science, 2021):
Entries after “also recorded” stand apart in the source; their conditions may differ. Like-named read-outs stand apart in the source and are kept apart here.

Columns and labels:
AF9 YEATS domain = AF9 YEATS domain (Homo sapiens, UniProt P42568); experiment: AF9 YEATS HTRF; assay type: binding
AF9(YEATS)-HiBiT = AF9(YEATS)-HiBiT (Homo sapiens, UniProt P42568); experiment: AF9; assay type: cell-based
BRD4 BD1 = BRD4 BD1 (Homo sapiens, UniProt O60885); experiment: BRD4 BD1 HTRF counter-screen; assay type: binding
YEATS4 YEATS domain = YEATS4 YEATS domain (Homo sapiens, UniProt O95619); experiment: SPR, biotinylated YEATS4 YEATS; assay type: binding
[1] = target: YSK4 (also known as MAP3K19) (Homo sapiens, UniProt Q56UN5); experiment: KdELECT affinity determination of scanMAX hits; assay type: binding
MV4;11 cells [2] = experiment: qRT-PCR transcript abundance in MV4; assay type: cell-based, human
MV4;11 cells [3] = experiment: Quant-seq 3′ mRNA sequencing in MV4; assay type: cell-based, human; conditions: MV4;11, 4 h
MV4;11 = experiment: Cell proliferation assay; assay type: cell-based, human; conditions: MV4;11 (MLL-AF4 AML), ∼2 weeks
MOLM-13 = experiment: Cell proliferation assay; assay type: cell-based; conditions: MOLM-13 (MLL-AF9 AML), ∼2 weeks
OCI/AML-2 = experiment: Cell proliferation assay; assay type: cell-based; conditions: OCI/AML-2 (MLL-AF6 AML), ∼2 weeks
HB11;19 = experiment: Cell proliferation assay; assay type: cell-based; conditions: HB11;19 (MLL-ENL fusion), ∼2 weeks
JURKAT = experiment: Cell proliferation assay; assay type: cell-based; conditions: JURKAT (T-cell ALL), ENL-insensitive
HL-60 = experiment: Cell proliferation assay; assay type: cell-based; conditions: HL-60 (MLL wild-type AML), ENL-insensitive
MOLT-4 = experiment: Cell proliferation assay; assay type: cell-based; conditions: MOLT-4 (T-cell ALL), up to 10 μM
786-O = experiment: Cell proliferation assay; assay type: cell-based; conditions: 786-O (renal cell carcinoma), 10 μM
MV4;11 cells [4] = experiment: 72 h viability assay; assay type: cell-based, human; conditions: MV4;11, 72 h
MV4;11 cells [5] = experiment: Cell cycle analysis; assay type: cell-based, human; conditions: MV4;11, 72 h
ENL YEATS domain [6] = target: T1, ENL YEATS domain (Homo sapiens, UniProt Q03111); conditions: 1 μM
T1 sequence (Q03111 1-148): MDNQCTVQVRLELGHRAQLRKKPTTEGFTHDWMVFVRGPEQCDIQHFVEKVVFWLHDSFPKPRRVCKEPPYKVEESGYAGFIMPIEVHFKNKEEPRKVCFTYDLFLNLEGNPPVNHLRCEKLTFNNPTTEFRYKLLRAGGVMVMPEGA

ENL [7] = target: T2, ENL (Homo sapiens, UniProt Q03111); experiment: ENL ChIP-qPCR / ChIP-seq in MV4
T2 sequence (Q03111 1-559): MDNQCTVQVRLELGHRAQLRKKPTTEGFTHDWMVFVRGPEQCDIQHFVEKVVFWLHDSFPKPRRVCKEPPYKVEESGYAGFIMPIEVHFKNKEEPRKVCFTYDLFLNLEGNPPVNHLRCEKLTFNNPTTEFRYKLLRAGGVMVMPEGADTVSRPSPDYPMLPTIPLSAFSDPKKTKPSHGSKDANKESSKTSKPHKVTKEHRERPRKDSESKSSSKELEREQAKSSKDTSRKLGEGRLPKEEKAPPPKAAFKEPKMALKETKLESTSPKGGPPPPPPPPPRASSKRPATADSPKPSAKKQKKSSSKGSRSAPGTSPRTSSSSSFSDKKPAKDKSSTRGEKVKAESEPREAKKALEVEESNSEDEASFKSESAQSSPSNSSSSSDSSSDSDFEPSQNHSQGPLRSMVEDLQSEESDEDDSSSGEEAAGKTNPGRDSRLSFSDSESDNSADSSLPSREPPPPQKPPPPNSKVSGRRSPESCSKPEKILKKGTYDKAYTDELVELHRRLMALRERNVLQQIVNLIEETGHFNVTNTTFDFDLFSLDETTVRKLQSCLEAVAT

468 kinases = experiment: KINOMEscan profiling; conditions: 10 μM, 468 kinases tested
YEATS2 YEATS domain = YEATS2 YEATS domain (Homo sapiens, UniProt Q9ULM3); experiment: Modified histone peptide array, YEATS2 YEATS; conditions: 10 and 50 μM
32 bromodomains = experiment: BROMOscan profiling; conditions: 10 μM
ENL [8] = target: T2, ENL; experiment: ENL degradation by immunoblot; assay type: cell-based; conditions: for DC50: read-out: ENL DC50, 4 h treatment
AF9 (V5) = AF9 (V5) (Homo sapiens, UniProt P42568); experiment: AF9-V5 degradation by immunoblot in MOLM-13 cells; assay type: cell-based; conditions: 4 h treatment
MV4;11 cells [9] = experiment: TMT-based whole proteome analysis of MV4; assay type: cell-based, human; conditions: 10 μM
ENL(YEATS)-HiBiT = ENL(YEATS)-HiBiT (Homo sapiens, UniProt Q03111); experiment: ENL; assay type: cell-based
ENL YEATS domain [10] = target: T1, ENL YEATS domain; experiment: ENL-H3K27cr HTRF
[11] = ENL-H3K27cr HTRF IC50, purified compound

Sequence of YSK4 (also known as MAP3K19) (Q56UN5 whole entry): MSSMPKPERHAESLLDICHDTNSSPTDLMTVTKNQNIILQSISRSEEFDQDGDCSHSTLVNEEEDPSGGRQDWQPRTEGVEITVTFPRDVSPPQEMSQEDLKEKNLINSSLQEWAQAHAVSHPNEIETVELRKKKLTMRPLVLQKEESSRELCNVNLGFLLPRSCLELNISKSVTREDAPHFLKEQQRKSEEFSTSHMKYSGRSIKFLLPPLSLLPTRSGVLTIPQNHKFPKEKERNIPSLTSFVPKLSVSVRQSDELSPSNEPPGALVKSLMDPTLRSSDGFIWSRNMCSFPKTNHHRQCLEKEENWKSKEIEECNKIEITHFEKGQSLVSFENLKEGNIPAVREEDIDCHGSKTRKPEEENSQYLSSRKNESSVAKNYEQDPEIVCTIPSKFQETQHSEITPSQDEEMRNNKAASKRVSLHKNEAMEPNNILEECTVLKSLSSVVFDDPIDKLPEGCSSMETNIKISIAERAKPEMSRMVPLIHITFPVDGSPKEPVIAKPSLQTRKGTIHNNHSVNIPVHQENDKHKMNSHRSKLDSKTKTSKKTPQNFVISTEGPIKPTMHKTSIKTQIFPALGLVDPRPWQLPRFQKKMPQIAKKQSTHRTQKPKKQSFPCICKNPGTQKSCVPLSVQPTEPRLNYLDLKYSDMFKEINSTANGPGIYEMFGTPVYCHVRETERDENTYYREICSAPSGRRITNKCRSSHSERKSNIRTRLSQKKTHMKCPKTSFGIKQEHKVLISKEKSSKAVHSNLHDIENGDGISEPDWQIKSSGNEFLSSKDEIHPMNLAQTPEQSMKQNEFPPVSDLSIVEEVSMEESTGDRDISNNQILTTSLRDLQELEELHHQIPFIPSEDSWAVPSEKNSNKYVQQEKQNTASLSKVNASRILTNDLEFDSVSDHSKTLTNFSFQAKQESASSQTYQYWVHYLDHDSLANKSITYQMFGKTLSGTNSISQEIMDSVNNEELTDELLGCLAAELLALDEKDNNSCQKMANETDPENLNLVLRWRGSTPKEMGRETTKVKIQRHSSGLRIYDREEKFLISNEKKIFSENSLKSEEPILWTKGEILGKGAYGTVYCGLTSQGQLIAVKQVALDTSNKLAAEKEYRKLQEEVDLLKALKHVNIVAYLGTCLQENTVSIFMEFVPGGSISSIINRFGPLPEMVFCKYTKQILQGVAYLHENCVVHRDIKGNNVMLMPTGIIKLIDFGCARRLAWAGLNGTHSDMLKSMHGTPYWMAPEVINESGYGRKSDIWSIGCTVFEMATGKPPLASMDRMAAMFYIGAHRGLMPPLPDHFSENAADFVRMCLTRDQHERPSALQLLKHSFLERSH
Sequence of AF9 (V5) (P42568 whole entry): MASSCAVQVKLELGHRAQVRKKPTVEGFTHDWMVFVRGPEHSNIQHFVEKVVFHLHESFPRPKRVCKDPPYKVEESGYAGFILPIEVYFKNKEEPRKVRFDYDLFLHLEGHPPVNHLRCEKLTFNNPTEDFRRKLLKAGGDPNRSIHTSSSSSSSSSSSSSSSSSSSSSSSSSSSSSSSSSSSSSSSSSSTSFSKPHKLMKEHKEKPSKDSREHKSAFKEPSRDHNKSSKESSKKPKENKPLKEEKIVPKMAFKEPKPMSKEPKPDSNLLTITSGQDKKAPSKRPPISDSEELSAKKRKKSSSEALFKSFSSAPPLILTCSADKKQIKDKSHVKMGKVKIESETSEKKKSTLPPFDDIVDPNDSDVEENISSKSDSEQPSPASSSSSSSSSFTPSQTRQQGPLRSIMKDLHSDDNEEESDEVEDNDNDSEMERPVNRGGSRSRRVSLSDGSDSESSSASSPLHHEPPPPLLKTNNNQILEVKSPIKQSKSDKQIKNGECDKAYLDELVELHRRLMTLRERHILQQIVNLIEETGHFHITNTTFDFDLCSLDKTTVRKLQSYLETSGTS
Sequence of AF9(YEATS)-HiBiT (P42568 1-138 limits assumed): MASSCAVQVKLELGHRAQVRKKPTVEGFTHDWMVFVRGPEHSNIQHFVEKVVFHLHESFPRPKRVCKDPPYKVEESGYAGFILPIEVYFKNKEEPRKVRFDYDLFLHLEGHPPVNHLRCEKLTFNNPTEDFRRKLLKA
Sequence of AF9 YEATS domain (P42568 1-138 limits assumed): as above
Sequence of YEATS4 YEATS domain (O95619 13-158): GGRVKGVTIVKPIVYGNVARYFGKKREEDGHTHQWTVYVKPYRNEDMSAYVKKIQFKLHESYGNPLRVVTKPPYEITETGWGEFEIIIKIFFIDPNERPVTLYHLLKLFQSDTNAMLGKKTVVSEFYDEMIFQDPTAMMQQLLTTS
Sequence of YEATS2 YEATS domain (Q9ULM3 200-345 limits assumed): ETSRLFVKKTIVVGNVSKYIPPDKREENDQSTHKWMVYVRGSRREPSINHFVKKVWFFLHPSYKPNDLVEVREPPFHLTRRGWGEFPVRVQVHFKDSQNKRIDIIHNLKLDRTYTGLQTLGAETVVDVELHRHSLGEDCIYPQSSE

Structure (SMILES): O=C(NC1CCC1)c1ccc2nc(-c3cccc(NS(=O)(=O)NCCN4CCCCC4)c3)cn2c1 [SR-0813, N-Cyclobutyl-2-(3-((N-(2-(piperidin-1-yl)ethyl)sulfamoyl)amino)phenyl)imidazo[1,2-a]pyridine-6-carboxamide]
- IC50 (AF9 YEATS domain): 0.311 µM
- EC50 (AF9(YEATS)-HiBiT): 0.076 µM
- activity against BRD4 BD1 by HTRF (BRD4 BD1): inactive
- binding to the YEATS4 YEATS domain by SPR (YEATS4 YEATS domain): virtually no binding
- lower affinity for YSK4 than for ENL YEATS [1]: over 100 fold
- abundance of the ITGAM transcript (CD11b) (MV4;11 cells [2]; MV4;11): increased abundance
- transcript abundance of HOXA9, MEIS1 and MYC (MV4;11 cells [2]; MV4;11, from 3 h to at least 3 days, 1 and 10 μM): downregulated
- transcript abundance of HMGCR and HMGCS1 (SREBP targets, off-target effect) (MV4;11 cells [2]; MV4;11, most prominent at 10 μM): upregulation
- expression of ENL target genes (3′ mRNA-seq) (MV4;11 cells [3]): strikingly selective suppression of ENL target genes
- global gene expression (3′ mRNA-seq) (MV4;11 cells [3]): did not elicit global changes in gene expression
- effect on cell growth (MV4;11): inhibited the growth
- effect on cell growth (MOLM-13): inhibited the growth
- effect on cell growth (OCI/AML-2): inhibited the growth
- effect on cell growth (HB11;19): inhibited the growth
- effect on cell growth (JURKAT): unaffected; also recorded: muted antiproliferative activity
- effect on cell growth (HL-60): unaffected; also recorded: muted antiproliferative activity
- effect on cell growth (MOLT-4): neither the T-cell ALL cell line, MOLT-4, nor the renal cell carcinoma cell line, 786-O, were affected
- effect on cell growth (786-O): neither the T-cell ALL cell line, MOLT-4, nor the renal cell carcinoma cell line, 786-O, were affected
- effect on viability (MV4;11 cells [4]): minimal effects
- cell cycle distribution (MV4;11 cells [5]): decrease in the number of cells at the G2 stage of the cell cycle
- ENL recognition of acetyllysine on histone peptide arrays (ENL YEATS domain [6]): completely inhibited
- ENL ChIP-seq signal genome-wide (ENL [7]; MV4;11): bulk displacement of ENL from chromatin
- ENL ChIP-qPCR enrichment at ENL binding sites (HOXA10 gene body, MYB promoter) (ENL [7]; MV4;11, 4 h): dose-dependent eviction of ENL
- number of kinases identified as potential off targets (KINOMEscan, scanMAX) (468 kinases): 4
- YEATS2 recognition of acetyllysine on histone peptide arrays (YEATS2 YEATS domain): minimal effects
- bromodomain off targets (BROMOscan, bromoMAX) (32 bromodomains): not a single bromodomain off target was identified

Structure (SMILES): O=C(COc1cccc2c1C(=O)N(C1CCC(=O)NC1=O)C2=O)NCCOCCOCCNS(=O)(=O)Nc1cccc(-c2cn3cc(C(=O)NC4CCC4)ccc3n2)c1 (stereo not drawn) [SR-1114, N-Cyclobutyl-2-(3-((N-(2-(2-(2-(2-((2-(2,6-dioxopiperidin-3-yl)-1,3-dioxoisoindolin-4-yl)oxy)acetamido)ethoxy)ethoxy)ethyl)sulfamoyl)amino)phenyl)imidazo[1,2-a]pyridine-6-carboxamide]
- time ENL degradation is sustained by a single dose (ENL [8]; 10 μM): 24 h
- time to maximal ENL degradation (ENL [8]; 10 μM, MV4;11 cells): ≤ 4 h
- DC50 (ENL [8]; MOLM-13 cells): 0.311 µM
- DC50 (ENL [8]; OCI/AML-2 cells): 1.65 µM
- degradation of exogenously expressed AF9-V5 (AF9 (V5)): degraded
- off-target degradation of IKZF1 (MV4;11 cells [9]): weak off-target degradation
- change in ENL abundance across the proteome (MV4;11 cells [9]; 4 and 16 h): strongest change in abundance across the proteome
- abundance of ENL target genes (HOXA10, MYC, MYB, FLT3, ZEB2, SATB1) (MV4;11 cells [9]; 16 h): preferential suppression of multiple ENL target genes
- abundance of myeloid differentiation marker CD11b (MV4;11 cells [9]; 16 h): increased the abundance

Structure (SMILES): CC(C)N(C)C(=O)c1ccc2nc(-c3ccccc3)cn2c1 [compound 2, N-Isopropyl-N-methyl-2-phenylimidazo[1,2-a]pyridine-6-carboxamide]
- EC50 (ENL(YEATS)-HiBiT): > 20 µM
- activity against ENL YEATS (ENL YEATS domain [10]): complete ablation of activity
- IC50 (ENL YEATS domain [10]; [11]): > 50 µM

Structure (SMILES): CC(C)NC(=O)c1ccc2nc(-c3cccc(NS(=O)(=O)NCCc4c[nH]cn4)c3)cn2c1 [compound 7]
- EC50 (ENL(YEATS)-HiBiT): 1.5 µM
- IC50 (ENL YEATS domain [10]; ENL YEATS HTRF IC50, purified compound): 0.23 µM
- IC50 (ENL YEATS domain [10]; [11]): 0.232 µM
- improvement in potency compared to the initial screening hit (ENL YEATS domain [10]; HTRF IC50 ratio): 30 fold
